Assay results published in PubChem BioAssay (NCI).
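Assay format: 96-well plates, 48-hour exposure. GI50 = concentration required for 50% inhibition of growth. The concentration for full growth arrest is given as TGI.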

Experiments:
Assay in all cases: NCI-60 cell line screen, 48 h
[1] = test system: A498 renal
[2] = test system: ACHN renal
[3] = test system: HT29 colon
[4] = test system: NCI-H460 lung
[5] = test system: OVCAR-5 ovarian
[6] = test system: RXF 393 renal
[7] = test system: SF-268 CNS
[8] = test system: SF-539 CNS
[9] = test system: SK-MEL-28 melanoma
[10] = test system: T-47D breast

CCCCCCNC(=O)c1cc(CCc2cc(O)ccc2O)ccc1O
TGI [1]: 15.4 µM
TGI [2]: 7.68 µM
TGI [3]: 64.7 µM
TGI [4]: 27.4 µM
TGI [5]: 19.3 µM
TGI [6]: 4.39 µM
TGI [7]: 9.9 µM
GI50 [8]: 2.18 µM
TGI [8]: 5.31 µM
TGI [9]: 7.37 µM

C/C(=C\c1ccccc1)C(=O)NCc1ccc(C(=O)NCCC(C)C)cc1
TGI [1]: > 100 µM
TGI [2]: > 100 µM
TGI [3]: > 100 µM
TGI [4]: > 100 µM
TGI [5]: > 100 µM
TGI [6]: 63.4 µM
TGI [7]: > 100 µM
TGI [8]: > 100 µM
TGI [9]: > 100 µM
TGI [10]: > 100 µM

CN(c1cc2ncc(=O)[nH]c2cc1NC(N)=NCc1ccc(Cl)cc1)C1CCCCC1
GI50 [1]: 8.04 µM
TGI [1]: 15.4 µM
GI50 [2]: 7.12 µM
TGI [2]: 14.2 µM
GI50 [3]: 5.03 µM
TGI [3]: 14.1 µM
GI50 [4]: 7.14 µM
TGI [4]: 14.5 µM
GI50 [5]: 6.58 µM
TGI [5]: 14.1 µM
GI50 [6]: 5.79 µM
TGI [6]: 13 µM
GI50 [7]: 6.89 µM
TGI [7]: 14.7 µM
GI50 [8]: 7.68 µM
TGI [8]: 14.6 µM
GI50 [9]: 6.71 µM
TGI [9]: 13.7 µM
GI50 [10]: 5.82 µM
TGI [10]: 17 µM

O=C(C=P(c1ccccc1)(c1ccccc1)c1ccccc1)c1cccc(-c2cccc([N+](=O)[O-])c2)c1
TGI [1]: 7.87 µM
TGI [2]: 15.7 µM
TGI [3]: 4.17 µM
TGI [4]: > 100 µM
TGI [5]: > 100 µM
TGI [6]: > 100 µM
TGI [7]: > 100 µM
TGI [8]: 54.4 µM
TGI [9]: 10.9 µM
TGI [10]: > 100 µM

CSc1nc(NC2OCC(OC(C)=O)C(OC(C)=O)C2OC(C)=O)c(N=C(C)C(C)=O)c(=O)[nH]1 (stereo not given)
TGI [1]: > 100 µM
TGI [2]: > 100 µM
TGI [3]: > 100 µM
TGI [4]: > 100 µM
TGI [5]: > 100 µM
TGI [6]: > 100 µM
TGI [7]: > 100 µM
TGI [8]: > 100 µM
TGI [9]: > 100 µM

Cc1nc2c(n1C)C(=O)c1nc(CBr)[nH]c(=O)c1C2=O
TGI [1]: > 100 µM
TGI [2]: > 100 µM
TGI [3]: > 100 µM
TGI [4]: > 100 µM
TGI [6]: > 100 µM
TGI [7]: > 100 µM
TGI [8]: > 100 µM
TGI [9]: > 100 µM

COc1cc(/C=N/n2c(Cc3ccc(Cl)cc3)n[nH]c2=O)cc(OC)c1OC
TGI [1]: > 100 µM
TGI [2]: > 100 µM
TGI [3]: > 100 µM
TGI [4]: > 100 µM
TGI [5]: > 100 µM
TGI [6]: > 100 µM
TGI [7]: > 100 µM
TGI [8]: > 100 µM
TGI [9]: > 100 µM
TGI [10]: > 100 µM

N#CC(c1nc2ccccc2s1)c1ncnc(Cl)c1[N+](=O)[O-] (stereo not given)
TGI [1]: > 100 µM
TGI [2]: > 100 µM
TGI [3]: 34.8 µM
TGI [4]: 47.1 µM
TGI [5]: 91.7 µM
TGI [6]: 89 µM
TGI [7]: 32.9 µM
TGI [8]: 61.3 µM
TGI [9]: 38.7 µM
TGI [10]: 86.9 µM

COc1ccc(C2CC(c3cccc(Nc4ccncc4)c3)=NN2c2ccc(Cl)cc2)cc1 (stereo not given)
GI50 [1]: 1.52 µM
TGI [1]: 8.16 µM
GI50 [2]: 1.56 µM
TGI [2]: 2.9 µM
GI50 [4]: 1.81 µM
TGI [4]: 3.37 µM
GI50 [5]: 1.76 µM
TGI [5]: 3.68 µM
GI50 [6]: 1.59 µM
TGI [6]: 3.03 µM
GI50 [7]: 1.72 µM
TGI [7]: 3.43 µM
GI50 [8]: 1.63 µM
TGI [8]: 3.03 µM
GI50 [9]: 1.73 µM
TGI [9]: 3.2 µM

N/C(=N\S(=O)(=O)c1cccc2nsnc12)Nc1ccc(Cl)cc1
TGI [1]: 59.5 µM
TGI [2]: > 100 µM
TGI [3]: > 100 µM
TGI [4]: 67 µM
TGI [5]: > 100 µM
TGI [6]: > 100 µM
TGI [7]: > 100 µM
TGI [8]: > 100 µM
TGI [9]: 71.8 µM
TGI [10]: > 100 µM

CC(C)(C)OC(=O)NCC(=O)NC1c2ccsc2/C(=N/O)[C@H]1O (stereo not given in full)
TGI [1]: > 100 µM
TGI [3]: > 100 µM
TGI [4]: > 100 µM
TGI [5]: > 100 µM
TGI [6]: > 100 µM
TGI [8]: > 100 µM
TGI [9]: > 100 µM
TGI [10]: > 100 µM

N#Cc1c(NC(=S)Nc2ccc(Cl)cc2)sc2c1CCCC2
TGI [1]: > 100 µM
TGI [2]: > 100 µM
TGI [3]: > 100 µM
TGI [5]: > 100 µM
TGI [6]: > 100 µM
TGI [7]: > 100 µM
TGI [9]: > 100 µM
TGI [10]: > 100 µM

COCO[C@@H]1C[C@H]2C(=O)N(COC)c3ccccc3C(=O)N2C1
TGI [1]: > 100 µM
TGI [2]: > 100 µM
TGI [3]: > 100 µM
TGI [5]: > 100 µM
TGI [6]: > 100 µM
TGI [7]: > 100 µM
TGI [8]: > 100 µM
TGI [9]: > 100 µM
TGI [10]: > 100 µM

O=C1N(c2ccccc2)C2(c3ccccc3)CC3CCCC13S2 (stereo not given)
TGI [1]: > 100 µM
TGI [2]: > 100 µM
TGI [3]: > 100 µM
TGI [5]: > 100 µM
TGI [6]: > 100 µM
TGI [7]: > 100 µM
TGI [8]: > 100 µM
TGI [9]: > 100 µM
TGI [10]: > 100 µM

C=CCc1cc(-c2cc(CC=C)c(O)c(CNC)c2)cc(CNC)c1O
TGI [1]: 34.6 µM
TGI [2]: 31.7 µM
TGI [3]: 29.1 µM
TGI [4]: 30.1 µM
TGI [7]: 33.3 µM
TGI [9]: 34 µM

CC(=O)Oc1c(C)c2c(O)c3c1C1=C(OCOC1=C(C)C3=O)/C(C)=C\C(C)(O)C(O)C(C)C(O)C1C(=O)OC(C(C)C1O)C(C)(O)/C=C/C=C(C)C(=O)N2 (stereo not given)
TGI [1]: > 100 µM
TGI [2]: > 100 µM
TGI [3]: > 100 µM
TGI [4]: > 100 µM
TGI [5]: 88.5 µM
TGI [6]: 70.4 µM
TGI [7]: > 100 µM
TGI [8]: 46.8 µM
TGI [9]: > 100 µM
TGI [10]: > 100 µM

COC(=O)c1cc2c3c(cc(N(C)C)c2[nH]1)N(C(=O)c1cc2cc(OC)c(OC)c(OC)c2[nH]1)CC3CCl (stereo not given)
TGI [1]: 0.0292 µM
TGI [3]: > 25 µM
TGI [4]: 0.323 µM
TGI [5]: 0.25 µM
TGI [6]: < 0.0025 µM
TGI [7]: 0.127 µM
TGI [9]: 0.0143 µM
TGI [10]: 0.642 µM

COc1ccc2c(c1)CCN=C2Cc1cc(OC)c(OC)cc1CCCl
TGI [2]: > 100 µM
TGI [3]: > 100 µM
TGI [4]: > 100 µM
TGI [5]: > 100 µM
TGI [6]: 91.4 µM
TGI [7]: > 100 µM
TGI [8]: 65.7 µM
TGI [9]: > 100 µM
TGI [10]: > 100 µM

C#CCn1ncc2c(SC)ncnc21
TGI [1]: > 100 µM
TGI [2]: > 100 µM
TGI [3]: > 100 µM
TGI [4]: > 100 µM
TGI [5]: > 100 µM
TGI [6]: > 100 µM
TGI [7]: > 100 µM
TGI [8]: > 100 µM
TGI [9]: > 100 µM
TGI [10]: > 100 µM

O=S1(=O)C(c2ccccc2)C(N2CCCCC2)C1C1CC2c3ccccc3C1c1ccccc12 (stereo not given)
TGI [1]: > 100 µM
TGI [2]: > 100 µM
TGI [3]: > 100 µM
TGI [4]: > 100 µM
TGI [5]: > 100 µM
TGI [6]: > 100 µM
TGI [7]: > 100 µM
TGI [8]: > 100 µM
TGI [9]: > 100 µM
TGI [10]: > 100 µM
